Assay: in vitro
Details: human, hela cells, % viability
Work on `O=C(Nc1ccc(Cl)cc1)c1ccc(N2CCN(Cc3ccccc3)CC2)c([N+](=O)[O-])c1` [CBK264422] yielded a viability at 28.5 h, 10 µM of 103%.
`Cc1sc2nc(SCC(=O)NCCO)nc(N)c2c1C` [CBK264423] showed a viability at 28.5 h, 10 µM of 109%.
Work on `Cc1sc2nc(SCCCN3C(=O)c4cccc5cccc(c45)C3=O)nc(N)c2c1C` [CBK264424] yielded a viability at 28.5 h, 10 µM of 76.6%.
`Cc1ccc(C)n1-c1ccc(C(=O)OCC(=O)c2cccc([N+](=O)[O-])c2)cc1` [CBK264427] showed a viability at 28.5 h, 10 µM of 97.8%.
In the case of `Cn1c(CSc2nc3sc4c(c3c(=O)[nH]2)CCCC4)nnc1SC/C=C/c1ccccc1` [CBK264428], the viability at 28.5 h, 10 µM is reported as 107%.
For `COC(=O)c1c(NC(=O)CC2Sc3ccccc3NC2=O)sc(C)c1C` (stereo not shown) [CBK264429], the viability at 28.5 h, 10 µM was 103%.
Compound `O=C(OCc1ccc([N+](=O)[O-])cc1)C1CCN(S(=O)(=O)c2cccc3cccnc23)CC1` [CBK264430] has a viability at 28.5 h, 10 µM of 115%.
For `COc1cccc(Nc2nnc(-c3cc4cc(OC)ccc4oc3=O)s2)c1` [CBK264432], the viability at 28.5 h, 10 µM was 94.1%.
Work on `O=C(COC(=O)C1CCN(S(=O)(=O)c2cccc3cccnc23)CC1)c1cccc([N+](=O)[O-])c1` [CBK264435] yielded a viability at 28.5 h, 10 µM of 97%.
In the case of `Cc1ccc(-c2nc3ccc(C)cc3c(C(=O)OCC(=O)c3cccc([N+](=O)[O-])c3)c2C)cc1` [CBK264436], the viability at 28.5 h, 10 µM is reported as 104%.
In the case of `COc1cccc(/C=C2/SC(=S)NC2=O)c1OCCCOc1ccccc1C` [CBK264442], the viability at 28.5 h, 10 µM is reported as 98.9%.
In the case of `NC(=O)c1ccc(NCCCN2CCOCC2)c([N+](=O)[O-])c1` [CBK264443], the viability at 28.5 h, 10 µM is reported as 104%.
`CCOc1cc(C(c2c[nH]c3ccccc23)c2c[nH]c3ccccc23)ccc1OCC(=O)O` [CBK264450] showed a viability at 28.5 h, 10 µM of 97.1%.
For `CCOc1cc(/C=C/c2ccc3cccc(O)c3n2)cc(Br)c1O` [CBK264451], the viability at 28.5 h, 10 µM was 95%.
Work on `CSc1nnc2c(n1)OC(/C=C/c1ccccc1)N(C(C)=O)c1ccccc1-2` (stereo not shown) [CBK264453] yielded a viability at 28.5 h, 10 µM of 99.7%.
`Cc1ccc(S(=O)(=O)N(C)CCCC(=O)n2cnc3ccccc32)cc1` [CBK264457] showed a viability at 28.5 h, 10 µM of 104%.
With `CCc1cc2c(=O)c(-c3cnn(-c4ccccc4)c3)c(C(F)(F)F)oc2c(CN2CCCCC2)c1O` [CBK264458] the viability at 28.5 h, 10 µM was 91.7%.
For `Cc1n[nH]c(-c2ccc(OCc3cnn(-c4ccccc4)c3)cc2O)c1Oc1ccc(F)cc1` [CBK264461], the viability at 28.5 h, 10 µM was 116%.
Compound `CC(=O)Nc1ccc(NC(=O)CSC2=C(C#N)C(c3ccco3)C3=C(CCCC3=O)N2)cc1` (stereo not shown) [CBK264462] has a viability at 28.5 h, 10 µM of 91.8%.
Compound `COc1ccc(C2C(C(=O)c3ccc(C)cc3)=C(O)C(=O)N2CCN(C)C)cc1OC` (stereo not shown) [CBK264463] has a viability at 28.5 h, 10 µM of 90.1%.
Compound `Cc1ccc(NC(=O)CN2C(=O)S/C(=C\c3cc(C)n(-c4ccc(C(=O)O)cc4)c3C)C2=O)cc1` [CBK264465] has a viability at 28.5 h, 10 µM of 91.6%.
Compound `Cc1cc(C)n(CC(O)CN(c2ccccc2)S(=O)(=O)c2ccccc2)n1` (stereo not shown) [CBK264469] has a viability at 28.5 h, 10 µM of 118%.
With `CC1CCN(S(=O)(=O)c2cc(C(=O)OCC(=O)c3ccccc3)c(Cl)cc2Cl)CC1` [CBK264470] the viability at 28.5 h, 10 µM was 95.6%.
With `CN(C)CCNc1nc(-c2cccnc2)nc2ccccc12` [CBK264471C] the viability at 28.5 h, 10 µM was 99.7%.
With `CCC(NS(=O)(=O)c1ccc(Br)cc1)C(=O)O` (stereo not shown) [CBK264472] the viability at 28.5 h, 10 µM was 97%.
`COc1ccc(C2=NN(c3ccc([N+](=O)[O-])cc3)C(=O)/C2=C\c2cccc(OC)c2OC)cc1` [CBK264475] showed a viability at 28.5 h, 10 µM of 96%.
For `C=CCn1c(SCC(=O)Nc2sc3c(c2C#N)CCC3)nc2scc(-c3ccccc3)c2c1=O` [CBK264477], the viability at 28.5 h, 10 µM was 104%.
`O=C(Oc1ccc2c(=O)c(Oc3ccc(-c4ccccc4)cc3)coc2c1)c1cccnc1` [CBK264479] showed a viability at 28.5 h, 10 µM of 97.6%.
`CCCC12CN3CC(CCC)(CN(C1)C3c1ccc([N+](=O)[O-])cc1)C2=O` (stereo not shown) [CBK264481] showed a viability at 28.5 h, 10 µM of 101%.
In the case of `COC(=O)c1ccc(/C=N/N=C2\NC(=O)C(CC(=O)Nc3ccccc3)S2)cc1` (stereo not shown) [CBK264483], the viability at 28.5 h, 10 µM is reported as 93.6%.

Same assay, conditions: human, hela cells, % viability, bulk resorufin, single well
In the case of `O=C1NC(=O)N(Cc2ccccc2)C(=O)/C1=C\NC(CO)(CO)CO` [CBK264431], the viability at 28.5 h, 10 µM is reported as 104%.

From article PMC12040169 (PLOS Biology, 2025)
